Source: patent publication US7435837B2, “Dihydrobenzofuranyl alkanamine derivatives and methods for using same” (Wyeth, priority 2003, dated 2008)

Biological target: T1, human 5-hydroxytryptamine-2C (h5-HT2C) receptor (Homo sapiens, UniProt P28335)
T1 construct: expressed in transfected cells; host or cells: CHO (Chinese Hamster Ovary) cells; membranes
T1 sequence (P28335 33-458): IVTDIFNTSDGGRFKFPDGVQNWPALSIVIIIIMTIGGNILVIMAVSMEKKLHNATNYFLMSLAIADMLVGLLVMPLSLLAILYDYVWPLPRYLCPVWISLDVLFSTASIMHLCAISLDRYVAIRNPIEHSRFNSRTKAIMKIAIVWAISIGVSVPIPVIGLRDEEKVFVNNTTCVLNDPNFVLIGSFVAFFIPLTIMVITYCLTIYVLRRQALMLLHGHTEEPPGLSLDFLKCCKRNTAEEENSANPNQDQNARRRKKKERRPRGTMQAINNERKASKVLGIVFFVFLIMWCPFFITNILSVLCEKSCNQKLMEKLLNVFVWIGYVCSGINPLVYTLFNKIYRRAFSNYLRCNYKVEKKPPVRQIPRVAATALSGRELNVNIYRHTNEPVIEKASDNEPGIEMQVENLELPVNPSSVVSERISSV
Assay: [125I]DOI binding to membranes of CHO cells expressing the human 5-HT2C receptor
Details: [125I]DOI radioligand, CHO cell membranes, room temperature 60 min; read-out: 5-HT2C Affinity Ki

| Structure (SMILES) | Ki [nM] |
| --- | --- |
| CNCC1Cc2cc(-c3ccccc3C(F)(F)F)cc(F)c2O1 (racemic) [Example 531, (±)-{7-fluoro-5-[2-(trifluoromethyl)phenyl]-2,3-dihydro-1-benzofuran-2-yl}methyl)methylamine] | 409 |
| NCC1Cc2cc(-c3ccccc3)cc(-c3ccccc3F)c2O1 (racemic) [Example 348, (±)-{[7-(2-fluorophenyl)-5-phenyl-2,3-dihydro-1-benzofuran-2-yl]methyl}amine] | 529 |
| NCC1Cc2cc(Cl)cc(-c3ccsc3)c2O1 (racemic) [Example 90, (±)-(5-chloro-7-thien-3-yl-2,3-dihydro-1-benzofuran-2-yl)methylamine] | 8 |
| CNCC1Cc2cc(-c3ccccc3)cc(-c3cccc(Cl)c3)c2O1 (racemic) [Example 506, (±)-{[7-(3-chlorophenyl)-5-phenyl-2,3-dihydro-1-benzofuran-2-yl]methyl}methylamine] | 1600 |
| NCC1Cc2cccc(Nc3cccc(F)c3)c2O1 (racemic) [Example 183, (±)-N-[2-(aminomethyl)-2,3-dihydro-1-benzofuran-7-yl]-N-(3-fluorophenyl)amine] | 178 |
| COc1cccc(-c2cccc3c2OC(CN)C3)c1 (single isomer, unassigned; (-)) [Example 134, (−)-1-[7-(3-methoxyphenyl)-2,3-dihydro-1-benzofuran-2-yl]methanamine] | 483 |
| NCC1Cc2cc(-c3ccccc3Cl)cc(F)c2O1 (racemic) [Example 376, (±)-{[7-fluoro-5-(2-chlorophenyl)-2,3-dihydro-1-benzofuran-2-yl]methyl}amine] | 88 |
| CNCC1Cc2cc(C(F)(F)F)cc(-c3cccc(F)c3)c2O1 (racemic) [Example 520, (±)-N-methyl-1-[7-(3-fluorophenyl)-5-(trifluoromethyl)-2,3-dihydro-1-benzofuran-2-yl]methanamine] | 372 |
| Cc1ccc(-c2cc(C(F)(F)F)cc3c2OC(CN)C3)cc1 (racemic) [Example 323, (±)-{[5-(trifluoromethyl)-7-(4-methylphenyl)-2,3-dihydro-1-benzofuran-2-yl]methyl}amine] | 161 |
| NCC1Cc2cc(-c3ccccc3)cc(-c3cc(Cl)ccc3Cl)c2O1 (racemic) [Example 355, (±)-{[7-(2,5-dichlorophenyl)-5-phenyl-2,3-dihydro-1-benzofuran-2-yl]methyl}amine] | 385 |
| CC1(CN)Cc2cc(Cl)cc(-c3ccsc3)c2O1 (racemic) [Example 113, (±)-(5-chloro-2-methyl-7-thien-3-yl-2,3-dihydro-1-benzofuran-2-yl)methylamine] | 130 |
| NCC1Cc2cccc(Nc3ccccc3F)c2O1 (racemic) [Example 194, (±)-N-[2-(aminomethyl)-2,3-dihydro-1-benzofuran-7-yl]-N-(2-fluorophenyl)amine] | 127 |
| NCC1Cc2cc(C(F)(F)F)cc(-c3ccc(F)c(Cl)c3)c2O1 (racemic) [Example 335, (±)-{[7-(3-chloro-4-fluorophenyl)-5-(trifluoromethyl)-2,3-dihydro-1-benzofuran-2-yl]methyl}amine] | 192 |
| Cc1ccccc1-c1cccc2c1CC(CN)O2 (single isomer, unassigned; (-)) [Example 6, (−)-1-[4-(2-methylphenyl)-2,3-dihydro-1-benzofuran-2-yl]methanamine] | 84 |
| NCC1Cc2cccc(Nc3ccc(Cl)cc3)c2O1 (racemic) [Example 175, (±)-N-[2-(aminomethyl)-2,3-dihydro-1-benzofuran-7-yl]-N-(4-chlorophenyl)amine] | 384 |
| CNCC1Cc2cc(-c3cccc(C(F)(F)F)c3)cc(F)c2O1 (racemic) [Example 536, (±)-{7-fluoro-5-[3-(trifluoromethyl)phenyl]-2,3-dihydro-1-benzofuran-2-yl}methyl)methylamine] | 1120 |
| COc1ccccc1-c1cc(C(F)(F)F)cc2c1OC(CN)C2 (racemic) [Example 316, (±)-{[5-(trifluoromethyl)-7-(2-methoxyphenyl)-2,3-dihydro-1-benzofuran-2-yl]methyl}amine] | 64 |
| NCC1Cc2cccc(-c3ccccc3F)c2O1 (single isomer, unassigned; (+)) [Example 51, (+)-1-[7-(2-fluorophenyl)-2,3-dihydro-1-benzofuran-2-yl]methanamine] | 1 |
| CNCC1Cc2cc(-c3ccccc3)cc(-c3cccc(OC)c3)c2O1 (racemic) [Example 515, (±)-{[7-(3-methoxyphenyl)-5-phenyl-2,3-dihydro-1-benzofuran-2-yl]methyl}methylamine] | 965 |
| CNCC1Cc2cc(-c3ccccc3)cc(-c3ccccc3Cl)c2O1 (racemic) [Example 505, (±)-{[7-(2-chlorophenyl)-5-phenyl-2,3-dihydro-1-benzofuran-2-yl]methyl}methylamine] | 371 |

| Structure (SMILES) | Ki [nM] |
| --- | --- |
| NCC1Cc2cc(-c3ccccc3C(F)(F)F)cc(F)c2O1 (racemic) [Example 378, (±)-({7-fluoro-5-[2-(trifluoromethyl)phenyl]-2,3-dihydro-1-benzofuran-2-yl}methyl)amine] | 201 |
| NCC1Cc2cc(-c3ccccc3)cc(-c3cccc(F)c3)c2O1 (racemic) [Example 349, (±)-{[7-(3-fluorophenyl)-5-phenyl-2,3-dihydro-1-benzofuran-2-yl]methyl}amine] | 760 |
| CC(C)(C)CCc1cccc2c1OC(CN)C2 (racemic) [Example 118, (±)-1-[7-(3,3-dimethylbutyl)-2,3-dihydro-1-benzofuran-2-yl]methanamine] | 319 |
| COc1cccc(-c2cccc3c2OC(CN)C3)c1OC (single isomer, unassigned; (+)) [Example 157] | 58 |
| Cc1cccc(-c2cccc3c2OC(CN)C3)c1 (racemic) [Example 41, (±)-1-[7-(3-methylphenyl)-2,3-dihydro-1-benzofuran-2-yl]methanamine] | 25 |
| CCc1cc2c(c(-c3ccccc3C)c1)OC(CN)C2 (racemic) [Example 305, (±)-{[5-ethyl-7-(2-methylphenyl)-2,3-dihydro-1-benzofuran-2-yl]methyl}amine] | 1.1 |
| Cc1ccccc1-c1cc(F)c2c(c1)CC(CN)O2 (racemic) [Example 375, (±)-{[7-fluoro-5-(2-methylphenyl)-2,3-dihydro-1-benzofuran-2-yl]methyl}amine] | 71 |
| CNCC1Cc2cc(-c3ccccc3C)cc(F)c2O1 (racemic) [Example 528, (±)-{[7-fluoro-5-(2-methylphenyl)-2,3-dihydro-1-benzofuran-2-yl]methyl}methylamine] | 1090 |
| NCC1Cc2cc(-c3cccc(Cl)c3)cc(F)c2O1 (racemic) [Example 382, (±)-{[7-fluoro-5-(3-chlorophenyl)-2,3-dihydro-1-benzofuran-2-yl]methyl}amine] | 801 |
| CNCC1Cc2cc(C(F)(F)F)cc(-c3cc(F)ccc3F)c2O1 (racemic) [Example 523, (±)-N-methyl-1-[7-(2,5-difluorophenyl)-5-(trifluoromethyl)-2,3-dihydro-1-benzofuran-2-yl]methanamine] | 61 |
| CNCC1Cc2cc(-c3ccc(F)cc3)cc(F)c2O1 (racemic) [Example 540, (±)-{[7-fluoro-5-(4-fluorophenyl)-2,3-dihydro-1-benzofuran-2-yl]methyl}methylamine] | 486 |
| COc1cccc(-c2cc(C(F)(F)F)cc3c2OC(CN)C3)c1 (racemic) [Example 321, (±)-{[5-(trifluoromethyl)-7-(3-methoxyphenyl)-2,3-dihydro-1-benzofuran-2-yl]methyl}amine] | 59 |
| NCC1Cc2cc(C(F)(F)F)cc(-c3ccc(C(F)(F)F)cc3)c2O1 (racemic) [Example 327, (±)-{[5-(trifluoromethyl)-7-(4-(trifluoromethyl)phenyl)-2,3-dihydro-1-benzofuran-2-yl]methyl}amine] | 255 |
| COc1ccc(Nc2cccc3c2OC(CN)C3)cc1C (racemic) [Example 185, (±)-N-[2-(aminomethyl)-2,3-dihydro-1-benzofuran-7-yl]-N-(4-methoxy-3-methylphenyl)amine] | 159 |
| Cc1ccc(Nc2cccc3c2OC(CN)C3)cc1Cl (racemic) [Example 188, (±)-N-[2-(aminomethyl)-2,3-dihydro-1-benzofuran-7-yl]-N-(3-chloro-4-methylphenyl)amine] | 579 |
| CNCC1Cc2cc(C(F)(F)F)cc(-c3ccc(F)c(Cl)c3)c2O1 (racemic) [Example 525, (±)-{[7-(3-chloro-4-fluorophenyl)-5-(trifluoromethyl)-2,3-dihydro-1-benzofuran-2-yl]methyl}methylamine] | 559 |
| NCC1Cc2cc(-c3ccccc3)cc(-c3ccc(F)cc3)c2O1 (racemic) [Example 350, (±)-{[7-(4-fluorophenyl)-5-phenyl-2,3-dihydro-1-benzofuran-2-yl]methyl}amine] | 497 |
| COc1cccc(-c2cc(F)c3c(c2)CC(CN)O3)c1 (racemic) [Example 384, (±)-{[7-fluoro-5-(3-methoxyphenyl)-2,3-dihydro-1-benzofuran-2-yl]methyl}amine] | 1260 |
| COc1ccc(-c2cc(F)c3c(c2)CC(CN)O3)cc1 (racemic) [Example 389, (±)-{[7-fluoro-5-(4-methoxyphenyl)-2,3-dihydro-1-benzofuran-2-yl]methyl}amine] | 1620 |
